Data set [1] in a line: Particle size test (Mastersizer 2000). Conditions: non-micronized, dispersant n-hexane, fumarate. The format is physicochemical. How it is done: The test conditions for the particle size involved in the present invention are: Mastersizer model: Mastersizer 2000; operation method: 20 mg of bedaquiline fumarate sample is taken, about 5.0 ml dispersant (n-hexane) is added, the sample is subjected to ultrasonication for 1.0 min, is allowed to stabilize for 0.5-1.0 min and then is tested.
Test Procedure: the Hydro2000SM injector was connected and the Small Volume Sample Dispersion Unit tachometer was turned on, then a suitable amount of ethanol was added to the sample cell to clean the detection channel of the instrument. A suitable amount of n-hexane (dispersant) was added to the dispersion cup, a suitable amount of n-hexane (dispersant) was inlet into the instrument to exhaust gas, the stirring rate was set to 2950 rpm, optical correction and background measurement were carried out.
The suspension was added to the sample cell until the opacity was between 15% to 20%, the suspension was allowed to stabilize for 0.5-1.0 min, the measurement time was 4 sec, the test results was saved automatically by the system.

Data set [2] in a line: Solubility of the crystal forms in different solvents at 50° C. The format is physicochemical.
The mark [3] stands for this setting: N,N-dimethylformamide, fumarate.

The results in this text go back to US10196360B2, “Crystal forms of bedaquiline fumarate and preparation methods therefor” (Zhejiang Hisun Pharmaceutical Co., Ltd., priority 2015, dated 2019).

By solubility is commonly meant the concentration that dissolves in the medium under given conditions. Low values mean little dissolved substance, high ones much dissolved substance.

Regarding `COc1nc2ccc(Br)cc2cc1[C@@H](c1ccccc1)[C@@](O)(CCN(C)C)c1cccc2ccccc12.O=C(O)/C=C/C(=O)O` [Crystal form III, (1R,2S)-1-(6-bromo-2-methoxyquinolin-3-yl)-4-dimethylamino-1-phenyl-2-(1-naphthyl)-2-butanol fumarate], the “D (0.1)” value in data set [1] is listed as 10.034 um. Moreover, the “D (0.5)” value in data set [1] is given as 33.721 um. Moreover, in data set [1], the “D (0.9)” value was 68.295 um. For the same compound, the solubility in data set [2] (Methanol, fumarate) is 6000 mg/mL; in data set [2] (setting [3]), 3000 mg/mL; in data set [2] (Tetrahydrofuran, fumarate) it was 3000 mg/mL; in data set [2] (Water) it was “insoluble”.
As for `COc1nc2ccc(Br)cc2cc1[C@@H](c1ccccc1)[C@@](O)(CCN(C)C)c1cccc2ccccc12.O=C(O)/C=C/C(=O)O` [Crystal form I, (1R,2S)-1-(6-bromo-2-methoxyquinolin-3-yl)-4-dimethylamino-1-phenyl-2-(1-naphthyl)-2-butanol fumarate], the “D (0.1)” value in data set [1] was 4.991 um. For the same compound, in data set [1], the “D (0.5)” value is 16.303 um. Also, the “D (0.9)” value in data set [1] is given as 37.967 um. Also, the solubility in data set [2] (Methanol, fumarate) is 2000 mg/mL; in data set [2] (setting [3]) it was 1000 mg/mL; in data set [2] (Tetrahydrofuran, fumarate), 1000 mg/mL; in data set [2] (Water) it was “insoluble”.
With `COc1nc2ccc(Br)cc2cc1[C@@H](c1ccccc1)[C@@](O)(CCN(C)C)c1cccc2ccccc12.O=C(O)/C=C/C(=O)O` [Crystal form II, (1R,2S)-1-(6-bromo-2-methoxyquinolin-3-yl)-4-dimethylamino-1-phenyl-2-(1-naphthyl)-2-butanol fumarate], the “D (0.1)” value in data set [1] was 3.146 um. The “D (0.5)” value in data set [1] came to 12.646 um. For the same compound, in data set [1], the “D (0.9)” value turned out to be 37.019 um. For the same compound, the solubility is 6000 mg/mL in data set [2] (Methanol, fumarate); 2000 mg/mL in data set [2] (setting [3]); 5000 mg/mL in data set [2] (Tetrahydrofuran, fumarate); “insoluble” in data set [2] (Water).
